Some test systems named below: Escherichia coli HB101; Cladosporium herbarum; Alternaria alternata; Botrytis cinerea; Escherichia coli UB1005; Escherichia coli 44102; Escherichia coli K88; Escherichia coli ER2566; Escherichia coli 078.
Common to all, as to experiment: ≥ marks a high value that may be exact or a test limit, other limits are often not marked, values filed in µg/mL are converted to µM
Test [1] relates to Corynebacterium glutamicum ATCC 13032.
For test [2], the system named is Staphylococcus aureus ATCC 9144.
For test [3], the system named is Pseudomonas aeruginosa ATCC 27853.
The test system of test [4] is Escherichia coli ATCC 25922.
Test [5] deals with Pseudomonas syringae pv. tomato DC3000.
Test [6] has as its system Xanthomonas vesicatoria DSM 50861.
Test [7] relates to Clavibacter michiganensis subsp. michiganensis DSM 46294.
The test system of test [8] is Pectobacterium carotovorum subsp. carotovorum DSM 30168.
Test [9] relates to Pseudomonas corrugata DSM 7228.
Test [10] deals with Pseudomonas syringae pv. syringae DSM 10604.
Test [11] relates to Staphylococcus aureus ATCC 25923.
For test [12], the system named is Salmonella enterica subsp. enterica serovar Typhimurium ATCC 14028.
The subject of test [13] is Pseudomonas aeruginosa ATCC 10419.
Test [14] relates to Pseudomonas aeruginosa ATCC 21625.
Test [15] concerns Salmonella enterica subsp. enterica serovar Pullorum C79-13.
The test system of test [16] is Enterococcus faecalis ATCC 29212.
Test [17] deals with Salmonella enterica subsp. enterica serovar Typhimurium C77-31.
The subject of test [18] is Bacillus subtilis ATCC 11060.
In test [19] the test system is Pseudomonas aeruginosa ATCC 21630.
Test [20] relates to Staphylococcus epidermidis ATCC 12228.

The term MIC denotes the lowest concentration found to suppress growth.

In brackets after ≈: the same amount, converted by molar mass.

Turning to `CC[C@H](C)[C@H](NC(=O)[C@@H]1CCCN1C(=O)[C@H](CCCCN)NC(=O)[C@@H]1CCCN1C(=O)[C@H](CCCN=C(N)N)NC(=O)CNC(=O)[C@@H]1CCCN1C(=O)[C@H](Cc1ccccc1)NC(=O)[C@@H]1CCCN1C(=O)[C@H](CCCN=C(N)N)NC(=O)[C@@H]1CCCN1C(=O)[C@H](CCCN=C(N)N)NC(=O)CNC(=O)[C@@H]1CCCN1C(=O)[C@H](CO)NC(=O)[C@@H]1CCCN1C(=O)[C@@H](N)Cc1c[nH]c2ccccc12)C(=O)N[C@@H](Cc1ccccc1)C(=O)N[C@@H](CCCN=C(N)N)C(=O)N1CCC[C@H]1C(=O)N[C@@H](CCCN=C(N)N)C(=O)O` [WPSPGRPRPFPGRPKPIFRPR], the MIC in test [1] is 3.1 µM (≈ 7.75 µg/mL); in [2], at least 100 µM; in the test on Escherichia coli HB101 it was 12.5 µM (≈ 31.2 µg/mL); in test [3], 100 µM (≈ 250 µg/mL); in test [4], 35.4 µM (≈ 88.4 µg/mL).
With `CC(C)C[C@H](NC(=O)[C@H](CCCCN)NC(=O)[C@H](Cc1cnc[nH]1)NC(=O)[C@H](CCCCN)NC(=O)[C@H](CC(C)C)NC(=O)[C@H](C)NC(=O)[C@H](CCCCN)NC(=O)[C@H](C)NC(=O)[C@H](CC(C)C)NC(=O)[C@H](C)NC(=O)[C@H](CCCN=C(N)N)NC(=O)[C@@H](N)CC(C)C)C(N)=O` [LRALAKALKHKL], the MIC in [5] was found to be 3.67 µM (≈ 5 µg/mL); in [6], 29.4 µM (≈ 40 µg/mL); with Cladosporium herbarum it was 14.7 µM (≈ 20 µg/mL); in test [7], 29.4 µM (≈ 40 µg/mL); in [8], 29.4 µM (≈ 40 µg/mL); in test [9] it was 7.34 µM (≈ 9.99 µg/mL). Further, the minimal inhibitory concentration (MIC) in the test on Alternaria alternata was at least 73.4 µM; against Botrytis cinerea, at least 73.4 µM; in [10] it was 29.4 µM (≈ 40 µg/mL).
Consider `CC[C@H](C)[C@H](NC(=O)[C@H](CCCCN)NC(=O)[C@H](CCCCN)NC(=O)[C@H](CC(C)C)NC(=O)[C@H](CCCN=C(N)N)NC(=O)[C@H](Cc1c[nH]c2ccccc12)NC(=O)[C@H](CCCN=C(N)N)NC(=O)[C@@H](NC(=O)[C@H](CCCCN)NC(=O)[C@H](Cc1c[nH]c2ccccc12)NC(=O)[C@H](CCCN=C(N)N)NC(=O)[C@H](CC(C)C)NC(=O)[C@H](CCCN=C(N)N)NC(=O)[C@H](CCCN=C(N)N)NC(=O)[C@H](Cc1ccccc1)NC(=O)[C@@H](N)CCCN=C(N)N)[C@@H](C)O)C(N)=O` [RFRRLRWKTRWRLKKI], for which the MIC was 4 µM (≈ 9.2 µg/mL) in the test on Escherichia coli UB1005; 8 µM (≈ 18.4 µg/mL) against Escherichia coli 44102; 32 µM (≈ 73.6 µg/mL) in [11]; 8 µM (≈ 18.4 µg/mL) in [12]; 16 µM (≈ 36.8 µg/mL) in test [13]; at least 32 µM in test [14]. In addition, the MIC in test [15] is at least 128 µM; with Escherichia coli K88, 4 µM (≈ 9.2 µg/mL); in test [3] it was over 128 µM; in the test with Escherichia coli ER2566 it was 8 µM (≈ 18.4 µg/mL); against Escherichia coli 078, 4 µM (≈ 9.2 µg/mL); in test [16], 4 µM (≈ 9.2 µg/mL). In addition, the minimal inhibitory concentration (MIC) in [17] worked out at 8 µM; in test [18], 8 µM (≈ 18.4 µg/mL); in test [19], 16 µM (≈ 36.8 µg/mL); in [20], 8 µM (≈ 18.4 µg/mL).

The record behind these values is DBAASP.
